Results published in patent US9669034B2, “4-aryl-N-phenyl-1,3,5-triazin-2-amines containing a sulfoximine group” (BAYER INTELLECTUAL PROPERTY GMBH, priority 2011, dated 2017).

Tests used:
CDK9/CycT1 = CDK9/CycT1 (Homo sapiens (Human), UniProt P50750); assay: CDK9/CycT1 kinase assay (TR-FRET); format: biochemical; details: Method 1
Description: 1. CDK9/CycT1 Kinase Assay:
CDK9/CycT1—inhibitory activity of compounds of the present invention was quantified employing the CDK9/CycT1 TR-FRET assay as described in the following paragraphs:
Recombinant full-length His-tagged human CDK9 and CycT1, expressed in insect cells and purified by Ni-NTA affinity chromatography, were purchased from Invitrogen (Cat. No PV4131). As substrate for the kinase reaction biotinylated peptide biotin-Ttds-[…]

CDK2/CycE = CDK2/CycE (Homo sapiens (Human), UniProt P24941); assay: CDK2/CycE kinase assay (TR-FRET); format: biochemical; details: Method 2
Description: 2. CDK2/CycE Kinase Assay:
CDK2/CycE—inhibitory activity of compounds of the present invention was quantified employing the CDK2/CycE TR-FRET assay as described in the following paragraphs:
Recombinant fusion proteins of GST and human CDK2 and of GST and human CycE, expressed in insect cells (Sf9) and purified by Glutathion-Sepharose affinity chromatography, were purchased from ProQinase GmbH (Freiburg, Germany). As substrate for the kinase reaction biotinylated peptide biotin-Ttds-[…]

[1] = unit cell empty (table: nM or μM)

Sequence of CDK9/CycT1 (P50750 whole entry): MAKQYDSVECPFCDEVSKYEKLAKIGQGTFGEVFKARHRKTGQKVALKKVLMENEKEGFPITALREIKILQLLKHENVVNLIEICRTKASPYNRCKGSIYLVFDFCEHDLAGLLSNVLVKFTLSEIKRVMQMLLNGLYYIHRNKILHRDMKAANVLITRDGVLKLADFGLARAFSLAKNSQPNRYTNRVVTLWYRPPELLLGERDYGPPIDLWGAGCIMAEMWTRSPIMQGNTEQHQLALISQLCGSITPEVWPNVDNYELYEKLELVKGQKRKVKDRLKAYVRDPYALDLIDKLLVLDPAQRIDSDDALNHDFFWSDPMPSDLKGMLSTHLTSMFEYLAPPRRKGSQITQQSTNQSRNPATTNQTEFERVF
Sequence of CDK9/CycT1 (O60563 whole entry partner): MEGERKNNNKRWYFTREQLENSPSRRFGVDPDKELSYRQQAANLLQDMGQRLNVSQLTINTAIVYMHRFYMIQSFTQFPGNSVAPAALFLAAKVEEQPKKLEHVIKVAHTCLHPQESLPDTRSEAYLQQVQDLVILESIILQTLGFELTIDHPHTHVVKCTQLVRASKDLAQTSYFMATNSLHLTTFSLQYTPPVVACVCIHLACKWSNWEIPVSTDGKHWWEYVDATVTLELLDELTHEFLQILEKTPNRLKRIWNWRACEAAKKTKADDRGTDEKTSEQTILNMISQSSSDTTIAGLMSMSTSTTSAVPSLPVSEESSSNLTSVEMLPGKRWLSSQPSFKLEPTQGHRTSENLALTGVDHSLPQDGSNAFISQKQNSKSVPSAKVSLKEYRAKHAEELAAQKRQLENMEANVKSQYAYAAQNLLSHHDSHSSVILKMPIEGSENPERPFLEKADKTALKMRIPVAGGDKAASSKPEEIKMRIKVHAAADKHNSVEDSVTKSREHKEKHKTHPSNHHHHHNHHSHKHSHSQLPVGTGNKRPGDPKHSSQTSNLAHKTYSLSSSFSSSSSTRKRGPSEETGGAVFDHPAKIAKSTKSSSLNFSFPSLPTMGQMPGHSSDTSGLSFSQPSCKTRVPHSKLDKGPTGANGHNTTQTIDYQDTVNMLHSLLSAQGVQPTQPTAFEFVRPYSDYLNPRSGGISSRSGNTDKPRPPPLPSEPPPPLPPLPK

Compound	IC50 (CDK9/CycT1)	IC50 (CDK2/CycE)	IC50 (CDK9/CycT1; [1])	IC50 (CDK2/CycE; [1])
COc1cc(Cl)ccc1-c1ncnc(Nc2cccc(CS(C)(=N)=O)c2)n1 (single isomer, unassigned) [Example 13, 4-(4-Chloro-2-methoxyphenyl)-N-{3-[(S-methylsulfonimidoyl)methyl]phenyl}-1,3,5-triazin-2-amine]	93 nM	9500 nM	–	–
CCOC(=O)N=S(C)(=O)Cc1cccc(Nc2ncnc(-c3ccc(F)cc3OC)n2)c1 (racemic) [Example 1, (rac)-Ethyl [(3-{[4-(4-fluoro-2-methoxyphenyl)-1,3,5-triazin-2-yl]amino}benzyl)(methyl)oxido-λ^6-sulfanylidene]carbamate]	–	2200 nM	–	–
CS(=N)(=O)Cc1cccc(Nc2ncnc(-c3ccc(F)cc3OCCC3CCOCC3)n2)c1 (racemic) [Example 57, (rac)-4-{4-Fluoro-2-[2-(tetrahydro-2H-pyran-4-yl)ethoxy]phenyl}-N-{3-[(S-methylsulfonimidoyl)methyl]phenyl}-1,3,5-triazin-2-amine]	370 nM	8300 nM	–	–
CCS(=N)(=O)Cc1cccc(Nc2ncnc(-c3ccc(F)cc3OC)n2)c1 (single isomer, unassigned) [Example 109, N-{3-[(S-ethylsulfonimidoyl)methyl]phenyl}-4-(4-fluoro-2-methoxyphenyl)-1,3,5-triazin-2-amine]	–	–	24 nM	780 nM
CCOC(=O)N=S(C)(=O)Cc1cccc(Nc2ncnc(-c3cccc4c3OC(F)(F)O4)n2)c1 (racemic) [Example 18, (rac)-Ethyl [(3-{[4-(2,2-difluoro-1,3-benzodioxol-4-yl)-1,3,5-triazin-2-yl]amino}benzyl)(methyl)oxido-λ^6-sulfanylidene]carbamate]	33 nM	3900 nM	–	–
CS(=N)(=O)Cc1cccc(Nc2ncnc(-c3cccc4c3OCC4)n2)c1 (single isomer, unassigned) [Example 35, 4-(2,3-Dihydro-1-benzofuran-7-yl)-N-{3-[(S-methylsulfonimidoyl)methyl]phenyl}-1,3,5-triazin-2-amine]	64 nM	3100 nM	–	–
COc1ccccc1-c1ncnc(Nc2cccc(CS(C)(=N)=O)c2)n1 (racemic) [Example 26, (rac)-4-(2-Methoxyphenyl)-N-{3-[(S-methylsulfonimidoyl)methyl]phenyl}-1,3,5-triazin-2-amine]	35 nM	4600 nM	–	–
COc1cc(Cl)ccc1-c1ncnc(Nc2cccc(CS(C)(=N)=O)c2)n1 (single isomer, unassigned) [Example 14, 4-(4-Chloro-2-methoxyphenyl)-N-{3-[(S-methylsulfonimidoyl)methyl]phenyl}-1,3,5-triazin-2-amine]	160 nM	13000 nM	–	–
CS(=N)(=O)Cc1cccc(Nc2ncnc(-c3ccc(F)cc3OCc3ccccc3)n2)c1 (racemic) [Example 6, (rac)-4-[2-(Benzyloxy)-4-fluorophenyl]-N-{3-[(S-methylsulfonimidoyl)methyl]phenyl}-1,3,5-triazin-2-amine]	3 nM	220 nM	–	–
CCOC(=O)N=S(C)(=O)Cc1cccc(Nc2ncnc(-c3ccccc3OCc3ccc(Cl)c(Cl)c3)n2)c1 (racemic) [Example 60, (rac)-Ethyl [{3-[(4-{2-[(3,4-dichlorobenzyl)oxy]phenyl}-1,3,5-triazin-2-yl)amino]benzyl}(methyl)oxido-λ^6-sulfanylidene]carbamate]	13 nM	3300 nM	–	–
CN=S(C)(=O)Cc1cccc(Nc2ncnc(-c3ccc(F)cc3OC)n2)c1 (racemic) [Example 41, (rac)-N-{3-[(N,S-Dimethylsulfonimidoyl)methyl]phenyl}-4-(4-fluoro-2-methoxyphenyl)-1,3,5-triazin-2-amine]	36 nM	2600 nM	–	–
CCOC(=O)N=S(C)(=O)Cc1cccc(Nc2ncnc(-c3ccccc3Oc3ccccc3)n2)c1 (racemic) [Example 47, (rac)-Ethyl [methyl(oxido)(3-{[4-(2-phenoxyphenyl)-1,3,5-triazin-2-yl]amino}benzyl)-λ^6-sulfanylidene]carbamate]	35 nM	6500 nM	–	–
CS(=N)(=O)Cc1cccc(Nc2ncnc(-c3cccc4c3OCC4)n2)c1 (racemic) [Example 34, (rac)-4-(2,3-Dihydro-1-benzofuran-7-yl)-N-{3-[(S-methylsulfonimidoyl)methyl]phenyl}-1,3,5-triazin-2-amine]	68 nM	2200 nM	–	–
COc1ccccc1-c1ncnc(Nc2cccc(CS(C)(=N)=O)c2)n1 (single isomer, unassigned) [Example 28, 4-(2-Methoxyphenyl)-N-{3-[(S-methylsulfonimidoyl)methyl]phenyl}-1,3,5-triazin-2-amine]	89 nM	5900 nM	–	–
CCOC(=O)N=S(C)(=O)Cc1cccc(Nc2ncnc(-c3cccc4c3OCC4)n2)c1 (racemic) [Example 33, (rac)-Ethyl [(3-{[4-(2,3-dihydro-1-benzofuran-7-yl)-1,3,5-triazin-2-yl]amino}benzyl)(methyl)oxido-λ^6-sulfanylidene]carbamate]	21 nM	3100 nM	–	–
CS(=N)(=O)Cc1cccc(Nc2ncnc(-c3cccc4c3OCC4)n2)c1 (single isomer, unassigned) [Example 36, 4-(2,3-Dihydro-1-benzofuran-7-yl)-N-{3-[(S-methylsulfonimidoyl)methyl]phenyl}-1,3,5-triazin-2-amine]	50 nM	2900 nM	–	–
CS(=N)(=O)Cc1cccc(Nc2ncnc(-c3ccc(F)cc3OCCC(F)(F)F)n2)c1 (racemic) [Example 65, (rac)-4-[4-Fluoro-2-(3,3,3-trifluoropropoxy)phenyl]-N-{3-[(S-methylsulfonimidoyl)methyl]phenyl}-1,3,5-triazin-2-amine]	79 nM	6000 nM	–	–
CS(=N)(=O)Cc1cccc(Nc2ncnc(-c3cccc4c3OCCO4)n2)c1 (racemic) [Example 38, (rac)-4-(2,3-Dihydro-1,4-benzodioxin-5-yl)-N-{3-[(S-methylsulfonimidoyl)methyl]phenyl}-1,3,5-triazin-2-amine]	14 nM	1600 nM	–	–
COc1cc(Cl)ccc1-c1ncnc(Nc2cccc(CS(C)(=N)=O)c2)n1 (racemic) [Example 12, (rac) 4-(4-Chloro-2-methoxyphenyl)-N-{3-[(S-methylsulfonimidoyl)methyl]phenyl}-1,3,5-triazin-2-amine]	74 nM	6800 nM	–	–
CS(=N)(=O)Cc1cccc(Nc2ncnc(-c3ccc(F)cc3OCc3ccccn3)n2)c1 (racemic) [Example 67, (rac)-4-[4-Fluoro-2-(pyridin-2-ylmethoxy)phenyl]-N-{3-[(S-methylsulfonimidoyl)methyl]phenyl}-1,3,5-triazin-2-amine]	97 nM	6900 nM	–	–
CCOC(=O)N=S(C)(=O)Cc1cccc(Nc2ncnc(-c3cccc(Cl)c3OC)n2)c1 (racemic) [Example 45, (rac)-Ethyl [(3-{[4-(3-chloro-2-methoxyphenyl)-1,3,5-triazin-2-yl]amino}benzyl)(methyl)oxido-λ^6-sulfanylidene]carbamate]	820 nM	9000 nM	–	–
CCOC(=O)N=S(C)(=O)Cc1cccc(Nc2ncnc(-c3cc(F)ccc3OC)n2)c1 (racemic) [Example 20, (rac)-Ethyl [(3-{[4-(5-fluoro-2-methoxyphenyl)-1,3,5-triazin-2-yl]amino}benzyl)(methyl)oxido-λ^6-sulfanylidene]carbamate]	22 nM	2000 nM	–	–
COc1cc(F)ccc1-c1ncnc(Nc2cccc(CS(=O)(=NC#N)C3CC3)c2)n1 (racemic) [Example 113, (rac)-[Cyclopropyl(3-{[4-(4-fluoro-2-methoxyphenyl)-1,3,5-triazin-2-yl]amino}benzyl)oxido-λ^6-sulfanylidene]cyanamide]	2 nM	300 nM	–	–
COc1ccccc1-c1ncnc(Nc2cccc(CS(C)(=N)=O)c2)n1 (single isomer, unassigned) [Example 27, 4-(2-Methoxyphenyl)-N-{3-[(S-methylsulfonimidoyl)methyl]phenyl}-1,3,5-triazin-2-amine]	100 nM	7600 nM	–	–
COc1cc(F)ccc1-c1ncnc(Nc2cccc(CS(=N)(=O)C3CCOCC3)c2)n1 (racemic) [Example 58, (rac)-4-(4-Fluoro-2-methoxyphenyl)-N-(3-{[S-(tetrahydro-2H-pyran-4-yl)sulfonimidoyl]methyl}phenyl)-1,3,5-triazin-2-amine]	89 nM	5200 nM	–	–
COc1cc(F)ccc1-c1ncnc(Nc2cc(F)cc(CS(C)(=N)=O)c2)n1 (single isomer, unassigned) [Example 53, 4-(4-Fluoro-2-methoxyphenyl)-N-{3-fluoro-5-[(S-methylsulfonimidoyl)methyl]phenyl}-1,3,5-triazin-2-amine]	–	540 nM	–	–
CC(Oc1cc(F)ccc1-c1ncnc(Nc2cccc(CS(C)(=N)=O)c2)n1)C1CCCC1 (stereo not shown) [Example 63, 4-[2-(1-cyclopentylethoxy)-4-fluorophenyl]-N-{3-[(S-methylsulfonimidoyl)methyl]phenyl}-1,3,5-triazin-2-amine]	99 nM	–	–	–
COc1cc(F)ccc1-c1ncnc(Nc2cc(F)c(F)c(CS(C)(=N)=O)c2)n1 (racemic) [Example 106, (rac)-N-{3,4-Difluoro-5-[(S-methylsulfonimidoyl)methyl]phenyl}-4-(4-fluoro-2-methoxyphenyl)-1,3,5-triazin-2-amine]	–	400 nM	–	–
